Assay results from ChEMBL document CHEMBL5729404, “Heterocyclic RIP1 kinase inhibitors” (2022).

The compounds below were run against T1, Receptor-interacting serine/threonine-protein kinase 1 (Homo sapiens, UniProt Q13546) (assay: Adding 5 μl of ADP-Glo™ terminated the reaction.).
T1 sequence (Q13546 whole entry): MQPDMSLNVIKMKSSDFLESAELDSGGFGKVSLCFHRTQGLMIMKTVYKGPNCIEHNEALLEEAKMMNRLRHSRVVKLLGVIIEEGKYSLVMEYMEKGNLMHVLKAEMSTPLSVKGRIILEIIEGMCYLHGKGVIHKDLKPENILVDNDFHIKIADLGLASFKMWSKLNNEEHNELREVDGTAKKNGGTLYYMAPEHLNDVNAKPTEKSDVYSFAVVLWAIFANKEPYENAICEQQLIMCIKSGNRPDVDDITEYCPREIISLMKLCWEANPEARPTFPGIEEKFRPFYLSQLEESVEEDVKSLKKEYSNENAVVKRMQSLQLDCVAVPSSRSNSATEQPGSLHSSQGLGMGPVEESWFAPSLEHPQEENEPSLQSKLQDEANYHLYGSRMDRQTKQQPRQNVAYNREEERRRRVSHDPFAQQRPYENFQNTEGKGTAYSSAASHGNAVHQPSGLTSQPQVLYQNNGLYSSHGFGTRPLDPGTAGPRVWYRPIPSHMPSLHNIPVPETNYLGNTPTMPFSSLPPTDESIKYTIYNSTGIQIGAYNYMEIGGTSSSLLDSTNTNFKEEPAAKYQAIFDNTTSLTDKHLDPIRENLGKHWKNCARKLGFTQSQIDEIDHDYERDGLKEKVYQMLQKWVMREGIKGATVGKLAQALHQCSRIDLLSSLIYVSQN
Compound `Cc1cccc(Cc2cnn(C(=O)N[C@H]3COc4ccc(Br)cc4N(C)C3=O)c2)n1` has an IC50 of 104 nM. `CN1C(=O)[C@@H](NC(=O)n2cc(Cc3cccc(C(F)(F)F)n3)cn2)COc2ccc(Br)cc21` was tested, and the IC50 was 168 nM. Work on `CN1C(=O)[C@@H](NC(=O)n2cc(Cc3ccncc3)cn2)COc2ccc(Br)cc21` yielded an IC50 of 102 nM. `CN1C(=O)[C@@H](NC(=O)n2cc(Cc3cccc(F)n3)cn2)COc2ccc(Br)cc21` gave an IC50 of 21.7 nM. With `CN1C(=O)[C@@H](NC(=O)n2cc(Cc3cccnc3)cn2)COc2ccc(Br)cc21` the IC50 was 8.3 nM. For `CN1C(=O)[C@@H](NC(=O)n2cc(Cc3ccccn3)cn2)COc2ccc(Br)cc21`, the IC50 was 65.2 nM. Work on `CN1C(=O)[C@@H](NC(=O)n2cc(Cc3cccnn3)cn2)COc2ccc(Br)cc21` yielded an IC50 of 830 nM. Work on `CN1C(=O)[C@@H](NC(=O)n2cc(Cc3ccc(F)nc3)cn2)COc2ccc(Br)cc21` yielded an IC50 of 40.3 nM.
